# Like-named read-outs stand apart in the source and are kept apart here.
# What was measured:
# [1] = tested on: MYC protein expression in MCF-7 breast cancer cells; assay: Western blotting of MYC protein level in MCF-7 cells; assay type: cell-based, human
# Protocol: MCF-7 cells were incubated with each compound at four concentrations (0.5, 1, 2, and 4 μM) for 24 hours, and the MYC protein levels were measured (FIG. 3A and FIGS. 12 A to 12 F).
# Cells were incubated at 37° C. with 5% CO2.
# The gels were cut into strips that contained the proteins of interest and transferred to nitrocellulose membrane (I323002, Invitrogen) using an iBlot 2 Dry Transfer Device (Invitrogen). Immunoblotting was carried out according to standard procedures using the ECL detection method. The membrane was hybridized with the following antibodies: monoclonal anti-MYC (1:1000 dilution; rabbit, Cell Signaling Technology), monoclonal anti-GAPDH (1:2000 dilution; rabbit, Cell Signaling Technology).
# [2] = tested on: NCI-60 cancer cell lines; assay: NCI-60 cancer cell line drug screen (GI50, MGM); assay type: cell-based, human; conditions: Homo sapiens; for GI50: read-out: Antiproliferative Activities [GI50 (μM)]
# Protocol: Cancer cells were incubated with the test compounds at five concentrations ranging from 100 μM to 10 nM for 48 h. […] The approximate average of GI50 values across the entire panel of NCI-60 cancer cell lines for each compound was recorded as the MGM value.
smiles,measurement,setting,value
O=C1c2ccccc2-c2c1c1ccccc1c(=O)n2CCCNCCO [Compound 13],minimal effective concentration,"[1]; Homo sapiens, MCF7, western blotting, MCF-7 cells, 0.5, 1, 2, and 4 μM, 24 hours, read-out: MYC Inhibition",0.5 to 1 µM
same,"MYC-inhibitory effect (MYC protein, western blot)","[1]; MCF-7, 0.5, 1, 2, and 4 μM, 24 h",clear MYC-inhibitory effect
same,GI50,"[2]; 786-0, Renal Cancer, 786-0",0.06 µM
same,GI50,"[2]; A498, Renal Cancer, A498",0.13 µM
same,GI50,"[2]; A549, Non-Small Cell Lung Cancer, A549/ATCC",0.06 µM
same,GI50,"[2]; ACHN, Renal Cancer, ACHN",0.04 µM
same,GI50,"[2]; BT-549, Breast Cancer, BT-549",0.28 µM
same,GI50,"[2]; CAKI-1, Renal Cancer, CAKI-1",0.24 µM
same,GI50,"[2]; CCRF-CEM, Leukemia, CCRF-CEM",0.01 µM
same,GI50,"[2]; COLO 205, Colon Cancer, COLO 205",0.07 µM
same,GI50,"[2]; DU-145, Prostate Cancer, DU-145",0.06 µM
same,GI50,"[2]; EKVX, Non-Small Cell Lung Cancer, EKVX",0.43 µM
same,GI50,"[2]; HCC 2998, Colon Cancer, HCC-2998",0.19 µM
same,GI50,"[2]; HCT-15, Colon Cancer, HCT-15",0.15 µM
same,GI50,"[2]; HCT-116, Colon Cancer, HCT-116",0.04 µM
same,GI50,"[2]; HL-60, Leukemia, HL-60(TB)",0.21 µM
same,GI50,"[2]; HOP-62, Non-Small Cell Lung Cancer, HOP-62",0.03 µM
same,GI50,"[2]; HOP-92, Non-Small Cell Lung Cancer, HOP-92",0.15 µM
same,GI50,"[2]; HT-29, Colon Cancer, HT29",0.12 µM
same,GI50,"[2]; Hs-578T, Breast Cancer, HS 578T",0.66 µM
same,GI50,"[2]; K562, Leukemia, K-562",0.18 µM
same,GI50,"[2]; KM12, Colon Cancer, KM12",0.19 µM
same,GI50,"[2]; LOX IMVI, Melanoma, LOX IMVI",0.05 µM
same,GI50,"[2]; Leukemia, SR",< 0.01 µM
same,GI50,"[2]; MCF7, Breast Cancer, MCF7",< 0.01 µM
same,GI50,"[2]; MDA-MB-231, Breast Cancer, MDA-MB-231/ATCC",0.68 µM
same,GI50,"[2]; MDA-MB-435, Melanoma, MDA-MB-435",0.39 µM
same,GI50,"[2]; MOLT-4, Leukemia, MOLT-4",< 0.01 µM
same,GI50,"[2]; Malme-3M, Melanoma, MALME-3M",0.21 µM
same,GI50,"[2]; Melanoma, M14",0.32 µM
same,GI50,"[2]; NCI-H23, Non-Small Cell Lung Cancer, NCI-H23",0.21 µM
same,GI50,"[2]; NCI-H226, Non-Small Cell Lung Cancer, NCI-H226",1.42 µM
same,GI50,"[2]; NCI-H322M, Non-Small Cell Lung Cancer, NCI-H322M",0.34 µM
same,GI50,"[2]; NCI-H460, Non-Small Cell Lung Cancer, NCI-H460",< 0.01 µM
same,GI50,"[2]; NCI-H522, Non-Small Cell Lung Cancer, NCI-H522",0.02 µM
same,GI50,"[2]; OVCAR-3, Ovarian Cancer, OVCAR-3",0.41 µM
same,GI50,"[2]; OVCAR-4, Ovarian Cancer, OVCAR-4",0.23 µM
same,GI50,"[2]; OVCAR-5, Ovarian Cancer, OVCAR-5",0.38 µM
same,GI50,"[2]; OVCAR-8, Ovarian Cancer, OVCAR-8",0.07 µM
same,GI50,"[2]; Ovarian Cancer, NCl/ADR-RES",1.04 µM
same,GI50,"[2]; Prostate Cancer, PC-3",0.28 µM
same,GI50,"[2]; RPMI-8226, Leukemia, RPMI-8226",0.1 µM
same,GI50,"[2]; RXF 393, Renal Cancer, RXF 393",0.96 µM
same,GI50,"[2]; Renal Cancer, U0-31",0.1 µM
same,GI50,"[2]; SF-268, CNS Cancer, SF-268",0.07 µM
same,GI50,"[2]; SF-295, CNS Cancer, SF-295",0.08 µM
same,GI50,"[2]; SF-539, CNS Cancer, SF-539",0.11 µM
same,GI50,"[2]; SK-MEL-2, Melanoma, SK-MEL-2",0.55 µM
same,GI50,"[2]; SK-MEL-5, Melanoma, SK-MEL-5",0.07 µM
same,GI50,"[2]; SK-MEL-28, Melanoma, SK-MEL-28",1.11 µM
same,GI50,"[2]; SK-OV-3, Ovarian Cancer, SK-OV-3",0.22 µM
same,GI50,"[2]; SN12C, Renal Cancer, SN12C",0.16 µM
same,GI50,"[2]; SNB-19, CNS Cancer, SNB-19",0.11 µM
same,GI50,"[2]; SNB-75, CNS Cancer, SNB-75",0.23 µM
same,GI50,"[2]; SW-620, Colon Cancer, SW-620",0.04 µM
same,GI50,"[2]; T47D, Breast Cancer, T-47D",0.05 µM
same,GI50,"[2]; TK-10, Renal Cancer, TK-10",0.41 µM
same,GI50,"[2]; U-251, CNS Cancer, U251",0.1 µM
same,GI50,"[2]; UACC-62, Melanoma, UACC-62",0.55 µM
same,GI50,"[2]; UACC-257, Melanoma, UACC-257",1.18 µM
same,mean GI50 across NCI-60 panel (MGM),[2]; average of GI50 values across the entire panel of NCI-60 cancer cell lines,140 nM
